Assay results from patent publication US20250375529A1, “PHOSPHORYLCHOLINE-TUFTSIN CONJUGATE FOR TREATING OCULAR INFLAMMATION” (TARSIER PHARMA LTD., priority 2017, published 2025).

What was measured:
[1] = system: lupus prone mice; details: subcutaneous (5 μg/mouse) and oral (50 μg/mouse and 250 μg/mouse) administration; cited from earlier work
[2] = system: experimental mouse models of autoimmune diseases; details: in the three mouse models; cited from earlier work
[3] = system: mice with dextran sodium sulfate induced colitis; details: subcutaneous (5 μg/mouse) and oral (50 μg/mouse and 250 μg/mouse) administration; cited from earlier work
[4] = system: mice with collagen-induced arthritis; details: subcutaneous (5 μg/mouse) and oral (50 μg/mouse and 250 μg/mouse) administration; cited from earlier work
[5] = system: THP-1 human monocyte cell line polarized to M1 macrophages; test: IL-10 secretion by THP-1-derived M1 macrophages; assay type: cell-based; details: THP-1 M0 (100 ng/ml PMA 48 hours) polarized to M1 with 10 ng/ml LPS; TPC 400 ug/ml, dexamethasone 1 uM, IL-4 and IL-13 20 ng/ml; versus PBS control
Description: FIG. 2: TPC enhances the anti-inflammatory effect of steroids. A bar graph showing the effect of IL-4/IL-13, TPC, dexamethasone and dexamethasone+TPC on IL-10 secretion by macrophages. *-P<0.05, **-P<0.01
To test the hypothesis that a combination of steroids and TPC will have a beneficial effect on treating inflammation, cells of the THP-1 human monocyte cell line were differentiated to M0 macrophages with 100 ng/ml PMA for 48 hours and then polarized to M1 macrophages with 10 ng/ml LPS. These cells were then tested with the following compounds: PBS (negative control), IL-4 and IL-13 (20 ng/ml, positive control as they induce the cells to a M2 phenotype), TPC (400 ug/ml), dexamethasone (1 uM), and a combination of dexamethasone (1 uM) and TPC (400 ug/ml). […] Further, since TPC itself reduces pro-inflammatory cytokine secretion as well, it may be used, not just in combination, but to reduce the total dose of steroid administered.

[6] = system: anti-CD3-activated PBMCs; test: Effects of TPC on cytokine secretion by anti-CD3-activated PBMCs (Luminex); assay type: cell-based
Description: FIGS. 1A-1B: Very low dose TPC has a strong immunomodulatory effect. Bar graphs showing the effects of TPC at a range of doses, on anti-CD3-activated PBMCs 48 h after treatment. Secretion of pro-inflammatory cytokine TNFα (1A) and anti-inflammatory cytokine IL-10 (1B) are shown. Column statistics, one-sample t test compared to a hypothetical value of 100 was used. *-P<0.05, **-P<0.01, ***-P<0.005
The immunomodulatory effect of TPC was determined in vitro on PBMCs from healthy donors. PBMCs were harvested and allowed to adhere to culture plates. TPC at various concentrations, or PBS or dexamethasone as controls were then added and an hour later anti-CD3 stimulating antibody was added to induce an inflammatory state. 48 hours later the supernatant was harvested from the cells and cytokine levels were assayed using standard Luminex protocols. Levels of cytokine induction was interpolated from standard curves, using 5-parameter non-linear regression analyses, where y=(A+((B−A)/(1+(((B−E)/(E−A))*((x/C)^D))))). The interpolated data was then normalized to vehicle controls (anti-CD3 stimulation alone). […] Once again, the effect was greatest at very low doses, as the 0.005 μg/ml TPC dose had the strongest effect causing a 33% increase in IL-10 levels. […] (FIG. 1B).

[7] = 0.005 μg/ml TPC, PBMCs from healthy donors, anti-CD3 stimulation, supernatant at 48 hours, normalized to vehicle control (anti-CD3 alone)

## Tuftsin-PhosphorylCholine [TPC]
[1]
  glomerulonephritis onset: prevented
[2]
  T and B regulatory cells: enhanced expansion
  anti-inflammatory IL-10: increased
  proinflammatory cytokine expression such as IL-6, IL-17, TNFα, IFNγ: inhibited
[3]
  colitis: reduced
[4]
  joint damage: prevented
[5]
  IL-10 expression: strong increase
[6]; [7]
  increase in IL-10 levels: 33%
  lowering of TNFα levels: 41%
[6]; anti-CD3-activated PBMCs, 48 hours, TPC relative to dexamethasone
  increase on IL-10 secretion as compared to dexamethasone: 220%
